Measured values published in publication PMC3433420 (PLoS ONE, 2012).
Residues, ends and D or L forms follow the SMILES beside them.

Assays:
Test in all cases: In-house protein microarrays (with or without 5 mM DTT), protein named per line
Format in all cases: binding
SH2 and PTB domains [1] = target: T1, SH2 and PTB domains (Homo sapiens, UniProt P16885)
T1 construct: thioredoxin; made in house; host or cells: BL21(DE3)pLysS E. coli
T1 sequence (P16885 1-1265): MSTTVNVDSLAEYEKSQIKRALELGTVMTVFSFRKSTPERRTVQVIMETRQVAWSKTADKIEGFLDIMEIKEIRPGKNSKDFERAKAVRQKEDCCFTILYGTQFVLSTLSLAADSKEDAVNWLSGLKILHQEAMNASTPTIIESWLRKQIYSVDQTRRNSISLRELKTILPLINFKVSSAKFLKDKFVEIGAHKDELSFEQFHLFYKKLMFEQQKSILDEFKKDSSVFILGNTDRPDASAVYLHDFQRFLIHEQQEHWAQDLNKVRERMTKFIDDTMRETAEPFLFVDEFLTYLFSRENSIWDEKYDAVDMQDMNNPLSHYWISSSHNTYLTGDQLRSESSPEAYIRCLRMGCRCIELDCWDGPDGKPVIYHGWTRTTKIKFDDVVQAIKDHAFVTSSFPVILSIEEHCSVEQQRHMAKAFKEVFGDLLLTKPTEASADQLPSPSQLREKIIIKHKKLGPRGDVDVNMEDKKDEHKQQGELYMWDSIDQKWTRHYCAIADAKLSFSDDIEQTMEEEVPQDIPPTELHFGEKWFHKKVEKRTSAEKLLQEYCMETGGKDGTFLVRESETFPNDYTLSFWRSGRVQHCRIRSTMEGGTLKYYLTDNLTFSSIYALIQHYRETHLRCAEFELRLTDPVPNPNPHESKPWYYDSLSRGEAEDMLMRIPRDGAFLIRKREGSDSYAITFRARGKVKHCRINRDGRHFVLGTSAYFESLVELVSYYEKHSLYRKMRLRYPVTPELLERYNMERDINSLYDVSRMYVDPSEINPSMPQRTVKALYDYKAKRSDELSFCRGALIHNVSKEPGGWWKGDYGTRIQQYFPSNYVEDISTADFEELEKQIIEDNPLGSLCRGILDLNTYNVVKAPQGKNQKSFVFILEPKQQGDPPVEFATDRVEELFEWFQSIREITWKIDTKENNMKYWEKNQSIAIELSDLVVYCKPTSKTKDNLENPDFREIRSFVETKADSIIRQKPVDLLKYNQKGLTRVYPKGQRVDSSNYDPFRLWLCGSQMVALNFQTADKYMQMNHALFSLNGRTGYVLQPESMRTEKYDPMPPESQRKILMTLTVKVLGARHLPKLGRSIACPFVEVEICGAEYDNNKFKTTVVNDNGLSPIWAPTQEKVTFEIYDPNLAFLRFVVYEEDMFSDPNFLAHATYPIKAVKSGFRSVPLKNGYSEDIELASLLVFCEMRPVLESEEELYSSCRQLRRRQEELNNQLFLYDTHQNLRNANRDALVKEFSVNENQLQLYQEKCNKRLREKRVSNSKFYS
Description: (§1) 300 pL of purified recombinant proteins and a thioredoxin tag control were spotted at a concentration of ∼40 µM in duplicate onto aldehyde-coated microscope slides (Erie Scientific Company, Portsmouth, NH) using a Nano-Plotter (NP) 2.1/E noncontact microarrayer (GeSiM, Munich, Germany). 16 identical microarrays per slide were printed in a 2×8 (column by row) format with distances of 9 mm between individual arrays; each array consisted of a 14×14 configuration of spots 400 µm apart. Following printing at a constant humidity level of 50%, slides were desiccated overnight and stored at −80°C. For peptide probing, array slides were transferred to 96-well microplates (TeleChem International, Inc., Sunnyvale, CA) and sandwiched with silicone gaskets. Prior to peptide addition, aldehyde sites were quenched with buffer B (20 mM HEPES, 100 mM KCl, 0.1% Tween-20, 5 mM DTT, pH 7.8) containing 1% bovine serum albumin (BSA) (w/v) for one hour at room temperature; moderate agitation was applied in a plate shaker (IKA, Germany) to displace glycerol from the surface area of protein sample spots. […] The arrays were subsequently washed once with 300 µL of buffer B and once with 300 µL of ddH2O. Residual water was removed by centrifugation; slides were stored under desiccation in the dark until analysis.
(§2) Microarray slides were scanned at a resolution of 10 µm using a GenePix 4000B microarray scanner and analyzed using GenePix Pro v6.0 software (Molecular Devices, Sunnyvale, CA). To independently visualize protein spots irrespective of peptide binding, samples were printed simultaneously with 400 nM of Cyanine-5 (Cy5) labeled bovine serum albumin (BSA). […] Following spot layout identification via Cy5 labeled BSA, the mean fluorescence intensity of rhodamine for duplicate protein spots was quantified and normalized by subtracting the corresponding mean fluorescence intensity of thioredoxin. Normalized fluorescence values were then imported into MATLAB and KDs determined as previously described.

SH2 and PTB domains [2] = target: T2, SH2 and PTB domains (Homo sapiens, UniProt O43639); conditions: protein NCK2
T2 construct: thioredoxin; made in house; host or cells: BL21(DE3)pLysS E. coli
Description: as §1, §2

SH2 and PTB domains [3] = target: T3, SH2 and PTB domains (Homo sapiens, UniProt P43405)
T3 construct: thioredoxin; made in house; host or cells: BL21(DE3)pLysS E. coli
Description: as §1, §2

SH2 and PTB domains [4] = target: T4, SH2 and PTB domains (Homo sapiens, UniProt Q92569)
T4 construct: thioredoxin; made in house; host or cells: BL21(DE3)pLysS E. coli
Description: as §1, §2

SH2 and PTB domains [5] = target: T5, SH2 and PTB domains (Homo sapiens, UniProt O60880); conditions: protein SH2D1A
T5 construct: thioredoxin; made in house; host or cells: BL21(DE3)pLysS E. coli
T5 sequence (O60880 1-128): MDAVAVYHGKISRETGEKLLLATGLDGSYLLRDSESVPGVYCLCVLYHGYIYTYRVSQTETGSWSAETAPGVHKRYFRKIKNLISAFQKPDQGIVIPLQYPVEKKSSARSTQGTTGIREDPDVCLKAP
Description: as §1, §2

SH2 and PTB domains [6] = target: T6, SH2 and PTB domains (Homo sapiens, UniProt Q9BRG2); conditions: protein SH2D3A
T6 construct: thioredoxin; made in house; host or cells: BL21(DE3)pLysS E. coli
Description: as §1, §2

SH2 and PTB domains [7] = target: T7, SH2 and PTB domains (Homo sapiens, UniProt P07947); conditions: protein YES1
T7 construct: thioredoxin; made in house; host or cells: BL21(DE3)pLysS E. coli
Description: as §1, §2

[8] = protein PLCG2-NC, PM assay replicate # 39337, array fabrication # 39329
[9] = PM assay replicate # 39307, array fabrication # 39286
[10] = protein SYK-NC, PM assay replicate # 39337, array fabrication # 39329
[11] = protein PIK3R3-NC, PM assay replicate # 39337, array fabrication # 39329
[12] = PM assay replicate # 39337, array fabrication # 39329
[13] = protein PLCG2-NC, PM assay replicate # 39336, array fabrication # 39329
[14] = PM assay replicate # 39336, array fabrication # 39329
[15] = protein SYK-N, PM assay replicate # 39336, array fabrication # 39329
[16] = protein SYK-NC, PM assay replicate # 39336, array fabrication # 39329

T7 sequence (P07947 whole entry, the tested form may be a part): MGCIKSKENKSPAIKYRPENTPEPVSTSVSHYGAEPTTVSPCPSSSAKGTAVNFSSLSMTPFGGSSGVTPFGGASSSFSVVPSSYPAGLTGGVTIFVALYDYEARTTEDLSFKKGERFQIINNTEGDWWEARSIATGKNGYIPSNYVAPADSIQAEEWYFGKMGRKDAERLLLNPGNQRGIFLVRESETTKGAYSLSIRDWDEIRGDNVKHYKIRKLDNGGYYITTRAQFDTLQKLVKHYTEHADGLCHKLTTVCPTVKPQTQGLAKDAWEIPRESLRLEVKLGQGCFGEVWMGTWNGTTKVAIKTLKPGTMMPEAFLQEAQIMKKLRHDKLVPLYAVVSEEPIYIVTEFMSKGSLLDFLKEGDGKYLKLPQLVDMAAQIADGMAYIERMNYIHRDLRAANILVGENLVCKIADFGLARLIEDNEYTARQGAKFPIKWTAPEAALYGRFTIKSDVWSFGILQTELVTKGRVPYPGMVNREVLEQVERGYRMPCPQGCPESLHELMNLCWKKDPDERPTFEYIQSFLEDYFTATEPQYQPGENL
T6 sequence (Q9BRG2 whole entry, the tested form may be a part): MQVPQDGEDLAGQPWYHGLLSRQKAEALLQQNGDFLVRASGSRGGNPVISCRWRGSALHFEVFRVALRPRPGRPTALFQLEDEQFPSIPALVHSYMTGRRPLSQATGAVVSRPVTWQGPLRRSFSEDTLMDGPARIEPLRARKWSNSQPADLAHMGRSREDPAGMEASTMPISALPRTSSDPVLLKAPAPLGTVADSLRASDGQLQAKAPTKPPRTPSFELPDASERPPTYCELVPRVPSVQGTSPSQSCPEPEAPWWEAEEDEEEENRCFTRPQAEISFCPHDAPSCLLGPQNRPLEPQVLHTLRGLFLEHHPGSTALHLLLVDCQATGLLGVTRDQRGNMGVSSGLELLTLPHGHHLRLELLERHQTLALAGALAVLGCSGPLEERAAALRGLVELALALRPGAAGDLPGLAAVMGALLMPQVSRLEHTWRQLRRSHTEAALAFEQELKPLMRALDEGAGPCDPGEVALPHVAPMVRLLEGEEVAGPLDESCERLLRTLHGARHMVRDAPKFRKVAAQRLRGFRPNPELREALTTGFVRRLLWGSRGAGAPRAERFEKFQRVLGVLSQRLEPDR
T2 sequence (O43639 whole entry, the tested form may be a part): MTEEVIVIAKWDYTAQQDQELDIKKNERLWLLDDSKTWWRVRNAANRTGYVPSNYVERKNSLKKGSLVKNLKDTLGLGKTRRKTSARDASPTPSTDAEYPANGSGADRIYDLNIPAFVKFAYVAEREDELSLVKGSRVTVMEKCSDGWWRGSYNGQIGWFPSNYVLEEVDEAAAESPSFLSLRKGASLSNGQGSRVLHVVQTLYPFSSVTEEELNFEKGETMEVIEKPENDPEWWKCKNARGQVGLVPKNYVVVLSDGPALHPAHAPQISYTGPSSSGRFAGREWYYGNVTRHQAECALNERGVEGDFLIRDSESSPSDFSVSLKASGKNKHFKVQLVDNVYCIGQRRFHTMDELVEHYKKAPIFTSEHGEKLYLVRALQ

Compound: CCN(CC)c1ccc2c(-c3ccc(C(=O)N[C@@H](CC(N)=O)C(=O)NCC(=O)N4CCC[C@H]4C(=O)N4CCC[C@H]4C(=O)N[C@@H](CCCCN)C(=O)N[C@@H](C)C(=O)N[C@@H](CCC(=O)O)C(=O)N[C@@H](CC(=O)O)C(=O)N[C@@H](CCC(=O)O)C(=O)N[C@@H](Cc4ccc(OP(=O)(O)O)cc4)C(=O)N[C@H](C(=O)N[C@@H](CC(N)=O)C(=O)N[C@@H](CCC(=O)O)C(=O)N4CCC[C@H]4C(=O)N[C@@H](CC(C)C)C(=O)N[C@@H](Cc4ccc(O)cc4)C(=O)N[C@@H](CC(C)C)C(=O)N[C@@H](CC(=O)O)C(=O)O)C(C)C)cc3C(=O)[O-])c3ccc(=[N+](CC)CC)cc-3oc2c1 [ErbB4 1202 (18-mer)] (HELM PEPTIDE1{[CCN(CC)c1ccc2c(-c3ccc(C(=O)[*:2])cc3C(=O)[O-])c3ccc(=[N+](CC)CC)cc-3oc2c1].N.G.P.P.K.A.E.D.E.[O=C([C@H](Cc1ccc(OP(=O)(O)O)cc1)N[*:1])[*:2]].V.N.E.P.L.Y.L.D}$$$$V2.0)
- Kd (SH2 and PTB domains [1]; [8]): 1.53 µM
- Kd (SH2 and PTB domains [1]; protein PLCG2-NC, PM assay replicate # 39351, array fabrication # 39336): 0.41 µM
- Kd (SH2 and PTB domains [1]; protein PLCG2-NC, PM assay replicate # 39352, array fabrication # 39336): 0.61 µM
- Kd (SH2 and PTB domains [2]; [9]): 10.06 µM
- Kd (SH2 and PTB domains [3]; protein SYK-NC, PM assay replicate # 39307, array fabrication # 39286): 0.95 µM
- Kd (SH2 and PTB domains [3]; [10]): 1.42 µM
- Kd (SH2 and PTB domains [3]; protein SYK-NC, PM assay replicate # 39351, array fabrication # 39336): 0.81 µM
- Kd (SH2 and PTB domains [3]; protein SYK-NC, PM assay replicate # 39352, array fabrication # 39336): 1.15 µM
- Kd (SH2 and PTB domains [4]; [11]): 1.18 µM
- Kd (SH2 and PTB domains [4]; protein PIK3R3-NC, PM assay replicate # 39352, array fabrication # 39336): 1.72 µM
- Kd (SH2 and PTB domains [5]; [9]): 30.90 µM
- Kd (SH2 and PTB domains [6]; [9]): 1.00 µM
- Kd (SH2 and PTB domains [7]; [9]): 0.35 µM
- Kd (SH2 and PTB domains [7]; [12]): 1.44 µM
- Kd (SH2 and PTB domains [7]; PM assay replicate # 39351, array fabrication # 39336): 1.61 µM
- Kd (SH2 and PTB domains [7]; PM assay replicate # 39352, array fabrication # 39336): 0.42 µM

Compound: CC(C)C[C@H](NC(=O)[C@@H]1CCCN1C(=O)[C@H](C)NC(=O)[C@@H](NC(=O)[C@H](Cc1ccc(OP(=O)(O)O)cc1)NC(=O)CNC(=O)[C@H](CC(=O)O)NC(=O)[C@@H](NC(=O)[C@@H](N)CCC(=O)O)[C@@H](C)O)C(C)C)C(=O)N[C@H](C(=O)N[C@@H](CS)C(=O)N[C@@H](CO)C(=O)N[C@@H](CC(=O)O)C(=O)O)[C@@H](C)O [ErbB2 pY1127]
- Kd (SH2 and PTB domains [1]; protein PLCG2-N, PM assay replicate # 39337, array fabrication # 39329): 4.16 µM
- Kd (SH2 and PTB domains [1]; [13]): 1.60 µM
- Kd (SH2 and PTB domains [1]; [8]): 0.58 µM
- Kd (SH2 and PTB domains [2]; [14]): 1.56 µM
- Kd (SH2 and PTB domains [2]; [12]): 0.46 µM
- Kd (SH2 and PTB domains [3]; protein SYK-C, PM assay replicate # 39336, array fabrication # 39329): 2.39 µM
- Kd (SH2 and PTB domains [3]; protein SYK-C, PM assay replicate # 39337, array fabrication # 39329): 1.92 µM
- Kd (SH2 and PTB domains [3]; [15]): 2.33 µM
- Kd (SH2 and PTB domains [3]; protein SYK-N, PM assay replicate # 39337, array fabrication # 39329): 3.21 µM
- Kd (SH2 and PTB domains [3]; [16]): 1.30 µM
- Kd (SH2 and PTB domains [3]; [10]): 0.96 µM
- Kd (SH2 and PTB domains [4]; protein PIK3R3-C, PM assay replicate # 39336, array fabrication # 39329): 1.21 µM
- Kd (SH2 and PTB domains [4]; protein PIK3R3-C, PM assay replicate # 39337, array fabrication # 39329): 2.04 µM
- Kd (SH2 and PTB domains [4]; protein PIK3R3-N, PM assay replicate # 39336, array fabrication # 39329): 0.00698 µM
- Kd (SH2 and PTB domains [4]; protein PIK3R3-N, PM assay replicate # 39337, array fabrication # 39329): 0.0758 µM
- Kd (SH2 and PTB domains [4]; protein PIK3R3-NC, PM assay replicate # 39336, array fabrication # 39329): 0.10 µM
- Kd (SH2 and PTB domains [4]; [11]): 0.0151 µM
- Kd (SH2 and PTB domains [4]; protein PIK3R3-NC, PM assay replicate # 39603, array fabrication # 39392): 0.05 µM
- Kd (SH2 and PTB domains [6]; [14]): 0.15 µM
- Kd (SH2 and PTB domains [6]; [12]): 1.15 µM
- Kd (SH2 and PTB domains [7]; [14]): 0.0053 µM
- Kd (SH2 and PTB domains [7]; [12]): 0.0651 µM

Compound: CC(C)C[C@H](NC(=O)[C@@H]1CCCN1)C(=O)N[C@@H](CCC(N)=O)C(=O)N[C@@H](CCCNC(=N)N)C(=O)N[C@@H](Cc1ccc(OP(=O)(O)O)cc1)C(=O)N[C@@H](CO)C(=O)N[C@@H](CCC(=O)O)C(=O)N[C@@H](CC(=O)O)C(=O)N1CCC[C@H]1C(=O)N[C@H](C(=O)N[C@H](C(=O)N1CCC[C@H]1C(=O)N[C@@H](CC(=O)O)C(=O)O)C(C)C)[C@@H](C)O [ErbB2 pY1112] (HELM PEPTIDE1{P.L.Q.R.[O=C([C@H](Cc1ccc(OP(=O)(O)O)cc1)N[*:1])[*:2]].S.E.D.P.T.V.P.D}$$$$V2.0)
- Kd (SH2 and PTB domains [1]; protein PLCG2-NC, PM assay replicate # 39331, array fabrication # 39329): 5.53 µM
- Kd (SH2 and PTB domains [1]; [13]): 0.93 µM
- Kd (SH2 and PTB domains [3]; protein SYK-N, PM assay replicate # 39331, array fabrication # 39329): 3.62 µM
- Kd (SH2 and PTB domains [3]; [15]): 14.58 µM
- Kd (SH2 and PTB domains [3]; protein SYK-NC, PM assay replicate # 39331, array fabrication # 39329): 0.89 µM
- Kd (SH2 and PTB domains [3]; [16]): 0.80 µM
- Kd (SH2 and PTB domains [5]; PM assay replicate # 39331, array fabrication # 39329): 1.72 µM
- Kd (SH2 and PTB domains [5]; [14]): 9.67 µM
